Experimental data as given in PubChem BioAssay AID330 (DTP/NCI, 2004).
Where “and” joins values, the source holds several entries; their conditions need not be identical. Identical values can stand only once. Inconclusive results and toxic doses are left out. How the source made its calls: active means survival T/C of 150% or more; inactive means T/C below 125% in these data.

System: P388 leukemia ip, CD2F1 mice, survival T/C
Assay: NCI In Vivo Anticancer Drug Screen. Data for tumor model P388 Leukemia (intraperitoneal) in CD2F1 (CDF1) mice
Conditions: endpoint: median survival time, higher = longer survival
How it was run: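 Mice carrying the transplanted tumor received test compound or vehicle. Survival was recorded in each group, and the value is the treated-group measurement divided by that of the vehicle-treated control group.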

[1] = dose: 100.0 mg/kg/injection, schedule: Q01DX005 (ip), vehicle: saline with Tween-80
[2] = dose: 200.0 mg/kg/injection, schedule: Q01DX005 (ip), vehicle: saline with Tween-80
[3] = dose: 25.0 mg/kg/injection, schedule: Q01DX005 (ip), vehicle: Klucel (hydroxypropylcellulose) (HPC)
[4] = dose: 50.0 mg/kg/injection, schedule: Q01DX005 (ip), vehicle: saline with Tween-80
[5] = dose: 60.0 mg/kg/injection, schedule: Q01DX005 (ip), vehicle: Klucel (hydroxypropylcellulose) (HPC)
[6] = dose: 120.0 mg/kg/injection, schedule: Q01DX005 (ip), vehicle: Klucel (hydroxypropylcellulose) (HPC)
[7] = dose: 240.0 mg/kg/injection, schedule: Q01DX005 (ip), vehicle: Klucel (hydroxypropylcellulose) (HPC)

Measured: T/C

Cc1ccc(S(=O)(=O)N(CCCc2c(Cl)nc(N)nc2-c2ccccc2)c2ccccc2)cc1
inactive: dose: 60.0 mg/kg/injection, schedule: Q01DX005 (ip), vehicle: saline with Tween-80 87 % of control | dose: 120.0 mg/kg/injection, schedule: Q01DX005 (ip), vehicle: saline with Tween-80 87 % of control | dose: 240.0 mg/kg/injection, schedule: Q01DX005 (ip), vehicle: saline with Tween-80 89 % of control

COc1cc(C2c3cc4c(cc3CC3COC(=O)C32)OCO4)cc(OC)c1O (stereo not given)
inactive: dose: 0.5 mg/kg/injection, schedule: Q01DX009 (ip), vehicle: saline with Tween-80 105 % of control | dose: 1.0 mg/kg/injection, schedule: Q01DX009 (ip), vehicle: saline with Tween-80 103 % of control | dose: 2.0 mg/kg/injection, schedule: Q01DX009 (ip), vehicle: saline with Tween-80 114 % of control | dose: 3.1 mg/kg/injection, schedule: Q01DX009 (ip), vehicle: saline with Tween-80 123 % of control | dose: 4.0 mg/kg/injection, schedule: Q01DX009 (ip), vehicle: saline with Tween-80 107 % of control

CCB1OCC(C2OC(=O)C3OB(CC)OC32)O1 (stereo not given)
inactive: dose: 50.0 mg/kg/injection, schedule: Q01DX005 (ip), vehicle: saline + Tween-80 + alcohol 101 % of control | dose: 100.0 mg/kg/injection, schedule: Q01DX005 (ip), vehicle: saline + Tween-80 + alcohol 101 % of control | dose: 200.0 mg/kg/injection, schedule: Q01DX005 (ip), vehicle: saline + Tween-80 + alcohol 95 % of control

C=CC(O)C(C)C(=O)O (stereo not given)
inactive: dose: 6.25 mg/kg/injection, schedule: Q01DX005 (ip), vehicle: saline 93 % of control | dose: 12.5 mg/kg/injection, schedule: Q01DX005 (ip), vehicle: saline 95 % of control | dose: 25.0 mg/kg/injection, schedule: Q01DX005 (ip), vehicle: saline 90 % of control | [1] 98 % of control | [2] 98 % of control

Cc1ccc2ccccc2[n+]1CC(=O)c1ccc([N+](=O)[O-])cc1
inactive: dose: 6.25 mg/kg/injection, schedule: Q01DX005 (ip), vehicle: Klucel (hydroxypropylcellulose) (HPC) 108 % of control | dose: 12.5 mg/kg/injection, schedule: Q01DX005 (ip), vehicle: Klucel (hydroxypropylcellulose) (HPC) 108 % of control | [3] 103 % of control | [4] 96 % of control | [1] 102 % of control | [2] 111 % of control

CCC[CH2][Sn]([CH2]CCC)([S]CCS(=O)(=O)O)[S]CCS(=O)(=O)O (tested in a mixture with another compound)
inactive: [5] 105 % of control | [6] 105 % of control | [7] 115 % of control

Cc1cc(NCCCN(C)C)c2ccc3cc4ccccc4cc3c2n1
inactive: dose: 25.0 mg/kg/injection, schedule: Q04DX002 (ip), vehicle: saline with Tween-80 93 % of control | dose: 50.0 mg/kg/injection, schedule: Q04DX002 (ip), vehicle: saline with Tween-80 92 % of control | dose: 100.0 mg/kg/injection, schedule: Q04DX002 (ip), vehicle: saline with Tween-80 108 % of control and 94 % of control

CCOC(CNc1cnc(NC(C)=O)[nH]c1=O)OCC
inactive: dose: 25.0 mg/kg/injection, schedule: Q01DX009 (ip), vehicle: saline with Tween-80 102 % of control | dose: 50.0 mg/kg/injection, schedule: Q01DX009 (ip), vehicle: saline with Tween-80 104 % of control | dose: 100.0 mg/kg/injection, schedule: Q01DX009 (ip), vehicle: saline with Tween-80 102 % of control | dose: 200.0 mg/kg/injection, schedule: Q01DX009 (ip), vehicle: saline with Tween-80 112 % of control

CCOC(=O)c1ccc(NC(=O)OCc2ccco2)cc1
inactive: [5] 89 % of control | [6] 92 % of control | [7] 91 % of control

CN(C)c1noc2c1c(=O)n(C)c(=O)n2C
inactive: dose: 60.0 mg/kg/injection, schedule: Q01DX005 (ip), vehicle: saline 105 % of control | dose: 120.0 mg/kg/injection, schedule: Q01DX005 (ip), vehicle: saline 100 % of control | dose: 240.0 mg/kg/injection, schedule: Q01DX005 (ip), vehicle: saline 99 % of control

COc1cc([N+](=O)[O-])c(OC)cc1Nc1ccccc1C(=O)O
inactive: dose: 60.0 mg/kg/injection, schedule: Q01DX005 (ip), vehicle: Klucel + Tween-80 89 % of control | dose: 120.0 mg/kg/injection, schedule: Q01DX005 (ip), vehicle: Klucel + Tween-80 90 % of control

CCOC(=O)N1C=CC=C(Br)C1C#N (stereo not given)
inactive: [4] 114 % of control

CC(=O)c1cc2c(cc1O)OC(C)(C)C=C2
inactive: [3] 101 % of control | dose: 50.0 mg/kg/injection, schedule: Q01DX005 (ip), vehicle: Klucel (hydroxypropylcellulose) (HPC) 99 % of control | dose: 100.0 mg/kg/injection, schedule: Q01DX005 (ip), vehicle: Klucel (hydroxypropylcellulose) (HPC) 91 % of control | dose: 200.0 mg/kg/injection, schedule: Q01DX005 (ip), vehicle: Klucel (hydroxypropylcellulose) (HPC) 92 % of control
